24 molecules from patent publication US6451804B1, “Heteroalkylamino-substituted bicyclic nitrogen heterocycles” (Syntex (U.S.A.) LLC, priority 1999, dated 2002) can be followed below.

One may read the IC50 as the concentration that inhibits the measured activity by half. In general, melting point refers to the temperature, or range, at which the solid turns liquid.

One series has as its target T1, p38 MAP kinase (Homo sapiens, UniProt Q16539).
T1 construct: made in house; host or cells: E. coli (co-expressed with SEK-1 and MEKK)
Put plainly: In vitro p38 MAP kinase inhibition assay (transfer of γ-phosphate from γ-33P-ATP to Myelin Basic Protein). The note with it: phosphorylated recombinant p38 MAP kinase, MBP substrate. In kind it is biochemical. The procedure:
This example illustrates a p38 (MAP) kinase in vitro assay useful for evaluating the compounds of the present invention.
The p38 MAP kinase inhibitory activity of compounds of this invention in vitro was determined by measuring the transfer of the γ-phosphate from γ-^33P-ATP by p38 kinase to Myelin Basic Protein (MBP), using a minor modification of the method described in Ahn, et al., J. Biol. Chem. 266:4220-4227 (1991).
The phosphorylated form of the recombinant p38 MAP kinase was co-expressed with SEK-1 and MEKK in E. Coli (see, Khokhlatchev, et al., J. Biol. Chem. 272:11057-11062 (1997)) and then purified by affinity chromatography using a Nickel column.
The phosphorylated p38 MAP kinase was diluted in kinase buffer (20 mM 3-(N-morpholino)propanesulfonic acid, pH 7.2, 25 mM β-glycerol phosphate, 5 mM ethylene glycol-bis(beta-aminoethyl ether)-N,N,N′,N′-tetraacetic acid, 1 mM sodium ortho-vanadate, 1 mM dithiothreitol, 40 mM magnesium chloride). Test compound dissolved in DMSO or only DMSO (control) was added and the samples were incubated for 10 minutes at 30° C. The kinase reaction was initiated by the addition of a substrate cocktail containing MBP and γ-^33P-ATP. After incubating for an additional 20 minutes at […], the reaction was terminated by adding 0.75% phosphoric acid. The phosphorylated MBP was then separated from the residual γ-^33P-ATP using a phosphocellulose membrane (Millipore, Bedfrod, Mass.) and quantitated using a scintillation counter (Packard, Meriden, Conn.).

Molecules are shown by their SMILES. Where a name gives a salt, the structure may show the parent alone.

T1 sequence (Q16539 whole entry): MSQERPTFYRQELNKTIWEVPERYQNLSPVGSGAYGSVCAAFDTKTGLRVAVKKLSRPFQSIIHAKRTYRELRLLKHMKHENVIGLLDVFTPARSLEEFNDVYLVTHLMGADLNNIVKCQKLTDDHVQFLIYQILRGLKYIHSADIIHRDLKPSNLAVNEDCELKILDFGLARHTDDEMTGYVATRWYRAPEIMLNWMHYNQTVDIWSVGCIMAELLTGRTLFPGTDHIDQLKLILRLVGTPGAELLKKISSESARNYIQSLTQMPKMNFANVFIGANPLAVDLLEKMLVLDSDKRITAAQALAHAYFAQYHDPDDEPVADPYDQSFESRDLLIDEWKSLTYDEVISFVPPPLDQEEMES

Turning to `CN1C(=O)N(c2ccccc2Cl)Cc2cnc(NCC(C)(C)CN)nc21` [Compound 3-1], the melting point lay in the range of 183 to 235 °C. At p38 MAP kinase, the IC50 was below 10 µM. The molecule `Cc1ccccc1N1Cc2cnc(NC3CCN(C[C@@H](O)CO)CC3)nc2N(C)C1=O` (as salt: hydrochloride) [Compound 2-14, (R)-7-[1-(2,3-dihydroxypropyl)piperidin-4-ylamino]-1-methyl-3-ortho-tolyl-3,4-dihydropyrimido[4,5-d]pyrimidin-2(1H)-one] gave a melting point of 195 to 208 °C. Same read-out and setting: the value for `NC(=O)CN1CCC(CNc2ncc3c(n2)NC(=O)N(c2ccccc2Cl)C3)CC1` (as salt: hydrochloride) [Compound 2-23, 3-(2-chlorophenyl)-7-[(1-aminocarbonylmethylpiperidin-4-ylmethyl)amino]-3,4-dihydropyrimido[4,5-d]pyrimidin-2(1H)-one] was 229.9 to 232.2 °C. For the molecule `Cc1ccccc1N1Cc2cnc(NC(C)(C)CO)nc2N(C)C1=O` [Compound 3-12], the IC50 at p38 MAP kinase was below 10 µM. Regarding `O=C1N(c2ccccc2Cl)Cc2cnc(N[C@H]3CC[C@H](O)CC3)nc2N1Cc1ccccc1` (as salt: hydrochloride) [Compound 3-48, 1-benzyl-3-(2-chlorophenyl)-7-(trans-4-hydroxycyclohexylamino)-3,4-dihydropyrimido[4,5-d]pyrimidin-2(1H)-one], the melting point fell in the range of 218.5 to 221 °C. `Cc1ccccc1N1Cc2cnc(NC3CCN(Cc4ccccc4)CC3)nc2N(C)C1=O` (as salt: hydrochloride) [Compound 2-9, 7-(1-benzylpiperidin-4-ylamino)-1-methyl-3-ortho-tolyl-3,4-dihydropyrimido[4,5-d]pyrimidin-2(1H)-one] showed a melting point of 253 to 253.9 °C. The same measure, in the same setting: then `Cc1ccccc1N1Cc2cnc(N[C@H](C)[C@@H](O)CO)nc2N(C)C1=O` [Compound 3-23, 7-((R,R)-2,3-dihydroxy-1-methylpropylamino)-3-ortho-tolyl-1-methyl-3,4-dihydropyrimido[4,5-d]pyrimidin-2(1H)-one], with 119.8 to 121.8 °C; and `O=C1Nc2nc(NC3CCC4(CC3)OCCO4)ncc2CN1c1ccccc1Cl` (as salt: hydrochloride) [Compound 4-24, 3-(2-chlorophenyl)-7-(1,4-dioxaspiro[4.5]dec-8-ylamino)-3,4-dihydropyrimido[4,5-d]pyrimidin-2(1H)-one], with 173.6 to 189.7 °C; and `Cc1ccccc1N1Cc2cnc(N[C@H](C)[C@@H](O)CO)nc2NC1=O` (as salt: hydrochloride) [Compound 4-4, (R,R)-7-(2,3-dihydroxy-1-methylpropylamino)-3-ortho-tolyl-3,4-dihydropyrimido[4,5-d]pyrimidin-2(1H)-one], with 161 to 172 °C. Turning to `Cc1ccccc1N1Cc2cnc(NC3CCN(CCO)CC3)nc2N(C)C1=O` [Compound 2-13, 7-[1-(2-hydroxyethyl)-piperidin-4-ylamino]-1-methyl-3-ortho-tolyl-3,4-dihydropyrimido[4,5-d]pyrimidin-2(1H)-one], the melting point lay in the range of 250 to 257 °C. For the molecule `CCOC(=O)N1CCC(Nc2ncc3c(n2)NC(=O)N(c2ccccc2Cl)C3)CC1` [Compound 2-28, 3-(2-chlorophenyl)-7-(1-ethoxycarbonylpiperidin-4-ylamino)-3,4-dihydropyrimido[4,5-d]pyrimidin-2(1H)-one], the concentration for half-maximal inhibition (IC50) at p38 MAP kinase was below 10 µM. For `O=C1N(c2ccccc2Cl)Cc2cnc(N[C@H]3CC[C@H](O)CC3)nc2N1CC(F)(F)F` [Compound 3-60, 3-(2-chlorophenyl)-7-(trans-4-hydroxycyclohexylamino)-1-(2,2,2-trifluoroethyl)-3,4-dihydropyrimido[4,5-d]pyrimidin-2(1H)-one], the melting point is 130 to 133.5 °C. Further, the IC50 on p38 MAP kinase is below 10 µM.

Molecule `COC(=O)CN1C(=O)N(c2ccccc2Cl)Cc2cnc(N[C@H]3CC[C@H](O)CC3)nc21` [Compound 3-49, 3-(2-chlorophenyl)-7-(trans-4-hydroxycyclohexylamino)-1-methoxycarbonylmethyl-3,4-dihydropyrimido[4,5-d]pyrimidin-2(1H)-one] came in with a melting point of 212 to 215 °C. The molecule `COC(=O)O[C@H]1CC[C@H](Nc2ncc3c(n2)NC(=O)N(c2ccccc2Cl)C3)CC1` (as salt: hydrochloride) [Compound 4-20, 3-(2-chlorophenyl)-7-(trans-4-methoxycarbonyloxycyclohexylamino)-3,4-dihydropyrimido[4,5-d]pyrimidin-2(1H)-one] showed a melting point above 260 °C.

On to `O=CO[C@H]1CC[C@H](Nc2ncc3c(n2)NC(=O)N(c2ccccc2Cl)C3)CC1` [Compound 4-15, 3-(2-chlorophenyl)-7-(trans-4-formyloxycyclohexylamino)-3,4-dihydropyrimido[4,5-d]pyrimidin-2(1H)-one], for which the melting point was above 300 °C. In turn, `N#CCN1CCC(CNc2ncc3c(n2)NC(=O)N(c2ccccc2Cl)C3)CC1` (as salt: hydrochloride) [Compound 2-22, 3-(2-chlorophenyl)-7-[(1-cyanomethylpiperidin-4-ylmethyl)amino]-3,4-dihydropyrimido[4,5-d]pyrimidin-2(1H)-one] returned a melting point of 207.2 to 207.7 °C. In turn, `NC(=O)O[C@H]1CC[C@H](Nc2ncc3c(n2)NC(=O)N(c2ccccc2Cl)C3)CC1` (as salt: hydrochloride) [Compound 4-21, 7-(trans-4-carbamoyloxycyclohexylamino)-3-(2-chlorophenyl)-3,4-dihydropyrimido[4,5-d]pyrimidin-2(1H)-one] yielded a melting point of 267 to 267.6 °C.

`Cc1ccccc1N1Cc2cnc(NCC(C)(C)CN)nc2N(C)C1=O` [Compound 3-3]: at p38 MAP kinase, the concentration for half-maximal inhibition (IC50) was below 10 µM. `CS(=O)(=O)N[C@H]1CC[C@H](Nc2ncc3c(n2)NC(=O)N(c2ccccc2Cl)C3)CC1` [Compound 4-28, 3-(2-chlorophenyl)-7-[trans-4-(methanesulfonylamino)cyclohexylamino]-3,4-dihydropyrimido[4,5-d]pyrimidin-2(1H)-one] yielded a melting point of 292.8 to 293.2 °C.

`O=C(O)CN1C(=O)N(c2ccccc2Cl)Cc2cnc(N[C@H]3CC[C@H](O)CC3)nc21` [Compound 3-53, 3-(2-chlorophenyl)-7-(trans-4-hydroxycyclohexylamino)-1-hydroxycarbonylmethyl-3,4-dihydropyrimido[4,5-d]pyrimidin-2(1H)-one] came in with a melting point of 230 to 240 °C. The same measure, in the same setting: then `CCOCC(COCC)N1C(=O)N(c2ccccc2Cl)Cc2cnc(N[C@H](C)CO)nc21` (as salt: hydrochloride) [Compound 3-21, (R)-3-(2-chlorophenyl)-7-[(2-hydroxy-1-methylethyl)amino]-1-(2-ethoxy-1-ethoxymethylethyl)-3,4-dihydropyrimido[4,5-d]pyrimidin-2(1H)-one], with 169.7 to 175.1 °C; and `O=C1N(c2ccccc2Cl)Cc2cnc(N[C@H]3CC[C@H](O)CC3)nc2N1CCO` [Compound 3-56, 3-(2-chlorophenyl)-7-(trans-4-hydroxycyclohexylamino)-1-(2-hydroxyethyl)-3,4-dihydropyrimido[4,5-d]pyrimidin-2(1H)-one], with 96.6 to 122.8 °C; and `CN1C(=O)N(c2ccccc2Cl)Cc2cnc(NC3(CO)CCCCC3)nc21` (as salt: hydrochloride) [Compound 3-43, 3-(2-chlorophenyl)-7-[(1-hydroxymethylcyclohexyl)amino]-1-methyl-3,4-dihydropyrimido[4,5-d]pyrimidin-2(1H)-one], with 203.7 to 207.8 °C. Still for that read-out and setting: the value for `O=C1CCC(Nc2ncc3c(n2)NC(=O)N(c2ccccc2Cl)C3)CC1` (as salt: hydrochloride) [Compound 4-23, 3-(2-chlorophenyl)-7-(4-oxo-cyclohexylamino)-3,4-dihydropyrimido[4,5-d]pyrimidin-2(1H)-one] was 204 to 210 °C.
